# From ChEMBL document CHEMBL1909046, “DrugMatrix in vitro pharmacology data”
# Assays:
# [1] = DRUGMATRIX: Leukotriene, BLT (LTB4) radioligand binding (ligand: [3H]LTB4); format: cell membranes, Membrane; settings: u-937; Not Active = under 50% inhibition at 10 µM
# [2] = molecular target: cGMP-specific 3',5'-cyclic phosphodiesterase (Homo sapiens, UniProt O76074); experiment: DRUGMATRIX: Phosphodiesterase PDE5 enzyme inhibition (substrate: [3H]cGMP + cGMP); format: tissue-based; settings: platelet; Not Active = under 50% inhibition at 10 µM
# [3] = molecular target: Aldo-keto reductase family 1 member B1 (Rattus norvegicus, UniProt P07943); experiment: biochemical; format: tissue-based, Lens of camera-type eye;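 note: inhibition of aldose reductase enzyme activity, measured with DL-glyceraldehyde as the substrate; in other assays of this panel Not Active means under 50% inhibition at 10 µM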
# [4] = molecular target: T1, C-C chemokine receptor type 4 (Homo sapiens, UniProt P51679); format: cell membranes, Membrane; settings: chem-1; note: in other assays of this panel Not Active means under 50% inhibition at 10 µM
# T1 sequence (P51679 whole entry): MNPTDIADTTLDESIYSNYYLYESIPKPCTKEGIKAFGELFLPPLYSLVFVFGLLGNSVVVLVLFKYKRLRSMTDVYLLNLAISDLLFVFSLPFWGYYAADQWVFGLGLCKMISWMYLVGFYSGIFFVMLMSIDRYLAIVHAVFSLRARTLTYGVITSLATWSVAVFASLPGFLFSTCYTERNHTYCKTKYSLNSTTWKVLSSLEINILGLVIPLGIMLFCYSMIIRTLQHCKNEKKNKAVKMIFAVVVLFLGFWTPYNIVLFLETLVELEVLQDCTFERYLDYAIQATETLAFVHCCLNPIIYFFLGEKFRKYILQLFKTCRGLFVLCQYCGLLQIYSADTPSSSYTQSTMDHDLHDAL
# [5] = molecular target: Sodium-dependent dopamine transporter (Homo sapiens, UniProt Q01959); experiment: DRUGMATRIX: Dopamine Transporter radioligand binding (ligand: [125I] RTI-55); format: cell membranes, CHO-K1, Membrane; settings: Not Active = under 50% inhibition at 10 µM
# Estrogen receptor = molecular target: T2, Estrogen receptor (Homo sapiens, UniProt P03372); settings: sf9; note: in other assays of this panel Not Active means under 50% inhibition at 10 µM
# T2 sequence (P03372 whole entry): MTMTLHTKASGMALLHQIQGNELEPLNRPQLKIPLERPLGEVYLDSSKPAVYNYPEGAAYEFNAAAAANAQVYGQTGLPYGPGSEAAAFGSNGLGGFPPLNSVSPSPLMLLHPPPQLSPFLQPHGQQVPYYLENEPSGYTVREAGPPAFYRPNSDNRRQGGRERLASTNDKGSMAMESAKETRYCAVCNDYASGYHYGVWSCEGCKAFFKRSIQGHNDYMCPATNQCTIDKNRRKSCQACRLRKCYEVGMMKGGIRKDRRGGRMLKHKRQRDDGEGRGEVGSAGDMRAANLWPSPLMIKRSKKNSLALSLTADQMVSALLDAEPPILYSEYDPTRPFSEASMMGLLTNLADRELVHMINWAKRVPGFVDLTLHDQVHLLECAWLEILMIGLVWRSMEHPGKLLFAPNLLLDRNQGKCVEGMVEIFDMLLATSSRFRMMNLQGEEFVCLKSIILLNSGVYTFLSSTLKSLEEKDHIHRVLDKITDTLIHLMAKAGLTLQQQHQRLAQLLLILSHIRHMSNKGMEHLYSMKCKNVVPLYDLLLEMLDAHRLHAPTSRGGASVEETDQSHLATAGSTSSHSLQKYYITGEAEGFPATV
# Mu-type opioid receptor = Mu-type opioid receptor (Homo sapiens, UniProt P35372); experiment: DRUGMATRIX: Opiate mu (OP3, MOP) radioligand binding (ligand: [3H] Diprenorphine); format: cell membranes, CHO-K1, Membrane; settings: cho-k1; Not Active = under 50% inhibition at 10 µM
# [6] = molecular target: T3, Neuropeptide Y receptor type 2 (Homo sapiens, UniProt P49146); format: cell membranes, Membrane; settings: kan-ts; note: in other assays of this panel Not Active means under 50% inhibition at 10 µM
# T3 sequence (P49146 whole entry): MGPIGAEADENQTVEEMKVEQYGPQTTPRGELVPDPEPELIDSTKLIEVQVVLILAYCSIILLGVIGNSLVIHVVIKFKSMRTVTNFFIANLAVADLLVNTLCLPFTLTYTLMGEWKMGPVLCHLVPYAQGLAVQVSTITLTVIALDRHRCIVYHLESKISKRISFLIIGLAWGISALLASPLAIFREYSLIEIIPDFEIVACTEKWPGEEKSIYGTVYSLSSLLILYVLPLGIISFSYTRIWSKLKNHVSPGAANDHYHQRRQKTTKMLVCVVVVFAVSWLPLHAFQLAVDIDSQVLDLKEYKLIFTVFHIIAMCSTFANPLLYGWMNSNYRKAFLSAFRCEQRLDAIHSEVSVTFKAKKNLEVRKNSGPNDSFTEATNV
# Sequence of Sodium-dependent dopamine transporter (Q01959 whole entry): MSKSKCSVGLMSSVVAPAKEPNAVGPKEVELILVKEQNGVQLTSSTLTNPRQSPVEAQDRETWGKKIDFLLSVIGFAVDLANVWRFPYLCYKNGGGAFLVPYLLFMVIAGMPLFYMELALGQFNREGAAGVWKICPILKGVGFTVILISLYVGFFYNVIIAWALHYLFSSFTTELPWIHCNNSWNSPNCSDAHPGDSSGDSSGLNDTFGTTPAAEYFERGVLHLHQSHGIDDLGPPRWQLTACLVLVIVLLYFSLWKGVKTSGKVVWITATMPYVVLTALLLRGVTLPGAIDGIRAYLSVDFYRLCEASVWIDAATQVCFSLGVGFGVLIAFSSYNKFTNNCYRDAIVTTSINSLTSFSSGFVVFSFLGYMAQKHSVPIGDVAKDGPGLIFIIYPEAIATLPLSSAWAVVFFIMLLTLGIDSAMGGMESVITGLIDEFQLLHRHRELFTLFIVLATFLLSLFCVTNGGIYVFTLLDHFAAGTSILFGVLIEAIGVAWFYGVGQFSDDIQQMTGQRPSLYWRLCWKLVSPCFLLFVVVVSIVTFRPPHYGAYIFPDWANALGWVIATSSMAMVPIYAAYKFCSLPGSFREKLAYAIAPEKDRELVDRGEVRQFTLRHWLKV
# Sequence of Mu-type opioid receptor (P35372 whole entry): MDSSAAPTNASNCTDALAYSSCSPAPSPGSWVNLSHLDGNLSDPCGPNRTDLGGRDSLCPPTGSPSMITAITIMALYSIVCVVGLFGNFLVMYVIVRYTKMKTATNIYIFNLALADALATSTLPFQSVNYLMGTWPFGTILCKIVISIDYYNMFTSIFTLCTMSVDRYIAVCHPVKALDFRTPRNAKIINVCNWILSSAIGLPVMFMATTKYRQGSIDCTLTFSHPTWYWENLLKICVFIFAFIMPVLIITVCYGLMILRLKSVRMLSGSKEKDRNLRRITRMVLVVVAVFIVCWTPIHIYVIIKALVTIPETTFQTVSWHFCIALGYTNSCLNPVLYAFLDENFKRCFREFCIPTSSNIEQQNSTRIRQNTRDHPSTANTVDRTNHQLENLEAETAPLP
SMILES,IC50 [1],Ki [1],IC50 [2],IC50 [3],IC50 [4],IC50 ([5]; cho-k1),IC50 (Estrogen receptor),IC50 (Mu-type opioid receptor),IC50 [6],IC50 ([5]; read-out: IC50) [µM],Ki ([5]; read-out: Ki) [µM]
CCn1cc(C(=O)O)c(=O)c2cc(F)c(N3CCNCC3)nc21 [ENOXACIN],Not Active,Not Active,Not Active,Not Active,Not Active,Not Active,Not Active,Not Active,Not Active,,
O=C(O)c1cc(=O)c2c(OCC(O)COc3cccc4oc(C(=O)O)cc(=O)c34)cccc2o1 [CROMOLYN],Not Active,Not Active,Not Active,Not Active,Not Active,Not Active,Not Active,Not Active,Not Active,,
CC(=O)OCC(CCn1cnc2cnc(N)nc21)COC(C)=O [FAMCICLOVIR],Not Active,Not Active,Not Active,Not Active,Not Active,Not Active,Not Active,Not Active,Not Active,,
O=P1(N(CCCl)CCCl)NCCCO1 (stereo not given) [CYCLOPHOSPHAMIDE ANHYDROUS],Not Active,Not Active,Not Active,Not Active,Not Active,Not Active,Not Active,Not Active,Not Active,,
O=c1cc(-c2ccccc2)oc2ccc3ccccc3c12 [BETA-NAPHTHOFLAVONE],Not Active,Not Active,Not Active,Not Active,Not Active,Not Active,Not Active,Not Active,Not Active,,
CO[C@@]1(NC(=O)CSCC#N)C(=O)N2C(C(=O)O)=C(CSc3nnnn3C)CS[C@@H]21 [CEFMETAZOLE],Not Active,Not Active,Not Active,Not Active,Not Active,Not Active,Not Active,Not Active,Not Active,,
CC(=O)O[C@]1(C(C)=O)CC[C@H]2[C@@H]3C=C(C)C4=CC(=O)CC[C@]4(C)[C@H]3CC[C@@]21C [MEGESTROL ACETATE],Not Active,Not Active,Not Active,Not Active,Not Active,Not Active,Not Active,Not Active,Not Active,,
COc1cc(CNC(=O)CCCC/C=C/C(C)C)ccc1O [CAPSAICIN],Not Active,Not Active,Not Active,Not Active,Not Active,Not Active,Not Active,Not Active,Not Active,,
CC(C)(C)c1ccc(S(=O)(=O)/C=C/C#N)cc1 [BAY-11-7085],Not Active,Not Active,Not Active,Not Active,Not Active,Not Active,Not Active,Not Active,Not Active,,
CC[C@H](C)C(=O)O[C@H]1C[C@@H](C)C=C2C=C[C@H](C)[C@H](CC[C@@H]3C[C@@H](O)CC(=O)O3)[C@H]21 [LOVASTATIN],Not Active,Not Active,Not Active,Not Active,Not Active,,Not Active,Not Active,Not Active,10.1,8.03
O=C(c1ccccc1Cl)N1CCC(Cc2ccccc2)CC1,Not Active,Not Active,Not Active,Not Active,Not Active,Not Active,Not Active,Not Active,Not Active,,
CCOC(=O)[C@H](CCc1ccccc1)N[C@@H](C)C(=O)N1Cc2ccccc2C[C@H]1C(=O)O,Not Active,Not Active,Not Active,Not Active,Not Active,Not Active,Not Active,Not Active,Not Active,,
CC[C@H]1OC(=O)[C@H](C)[C@@H](O[C@H]2C[C@@](C)(OC)[C@@H](O)[C@H](C)O2)[C@H](C)[C@@H](O[C@@H]2O[C@H](C)C[C@H](N(C)C)[C@H]2O)[C@](C)(O)C[C@@H](C)CN(C)[C@H](C)[C@@H](O)[C@]1(C)O [AZITHROMYCIN],Not Active,Not Active,Not Active,Not Active,Not Active,Not Active,Not Active,Not Active,Not Active,,
COC(=O)c1ccccc1O [METHYL SALICYLATE],Not Active,Not Active,Not Active,Not Active,Not Active,Not Active,Not Active,Not Active,Not Active,,
CC[C@H](C)C(=O)O[C@H]1C[C@H](O)C=C2C=C[C@H](C)[C@H](CC[C@@H](O)C[C@@H](O)CC(=O)O)[C@H]21 [PRAVASTATIN],Not Active,Not Active,Not Active,Not Active,Not Active,Not Active,Not Active,Not Active,Not Active,,
C[C@]12C/C(=C/O)C(=O)C[C@@H]1CC[C@@H]1[C@@H]2CC[C@@]2(C)[C@H]1CC[C@]2(C)O [OXYMETHOLONE],Not Active,Not Active,Not Active,Not Active,Not Active,Not Active,Not Active,Not Active,Not Active,,
OCCO [ETHYLENE GLYCOL],Not Active,Not Active,Not Active,Not Active,Not Active,Not Active,Not Active,Not Active,Not Active,,
NC[C@H]1O[C@H](O[C@H]2[C@H](O)[C@@H](O[C@H]3O[C@H](CO)[C@@H](O)[C@H](N)[C@H]3O)[C@H](N)C[C@@H]2N)[C@H](O)[C@@H](O)[C@@H]1O [KANAMYCIN],Not Active,Not Active,Not Active,Not Active,Not Active,Not Active,Not Active,Not Active,Not Active,,
NC[C@@H]1O[C@H](O[C@H]2[C@@H](O)[C@H](O[C@@H]3[C@@H](O)[C@H](N)C[C@H](N)[C@H]3O[C@H]3O[C@H](CN)[C@@H](O)[C@H](O)[C@H]3N)O[C@@H]2CO)[C@H](N)[C@@H](O)[C@@H]1O [FRAMYCETIN],Not Active,Not Active,Not Active,Not Active,Not Active,Not Active,Not Active,Not Active,Not Active,,
CCCCCC[C@H]1C(=O)O[C@H](C)[C@H](NC(=O)c2cccc(NC=O)c2O)C(=O)O[C@@H](C)[C@@H]1OC(=O)CC(C)C [ANTIMYCIN A],Not Active,Not Active,Not Active,Not Active,Not Active,Not Active,Not Active,Not Active,Not Active,,
Cc1c(F)c(N2CCNC(C)C2)cc2c1c(=O)c(C(=O)O)cn2C1CC1 (stereo not given) [GREPAFLOXACIN],Not Active,Not Active,Not Active,Not Active,Not Active,Not Active,Not Active,Not Active,Not Active,,
